Patent US11708348B2, “Protease inhibitors for treatment of coronavirus infections” (The Scripps Research Institute, priority 2021, dated 2023)

Each compound was assayed on SARS-CoV-2 strain USA-WA1/2020 (assay: microbe, parasite or virus in culture). Settings: Severe acute respiratory syndrome coronavirus 2, HeLa-ACE2, 24 h, HeLa-ACE2 cells, SARS-CoV-2 infection, 24 h; cells given as a bound; read-out: EC50, uM (Hela).
Format: cell-based

| Compound | EC50 |
| --- | --- |
| COc1cccc2[nH]c(C(=O)N[C@@H](CC(C)C)C(=O)N[C@@H](C[C@@H]3CCNC3=O)C(=O)COC(C(F)(F)F)C(F)(F)F)cc12 [Compound 157] | > 1 µM |

Same assay, conditions: Severe acute respiratory syndrome coronavirus 2, HeLa-ACE2, 24 h, HeLa-ACE2 cells, SARS-CoV-2 infection, 24 h; class symbols; read-out: EC50, uM (Hela)

| Compound | EC50 |
| --- | --- |
| CC(C)C[C@H](NC(=O)O[C@H]1CCOC1)C(=O)N[C@@H](C[C@@H]1CCNC1=O)C(=O)COc1c(F)c(F)cc(F)c1F [Compound 127, (S)-tetrahydrofuran-3-yl ((S)-4-methyl-1-oxo-1-(((S)-3-oxo-1-((S)-2-oxopyrrolidin-3-yl)-4-(2,3,5,6-tetrafluorophenoxy)butan-2-yl)amino)pentan-2-yl)carbamate] | 0.5 to 1 µM |
| CC(C)C[C@H](NC(=O)C(=O)NC1CC(F)(F)C1)C(=O)N[C@@H](C[C@@H]1CCNC1=O)C(=O)COC(F)(F)F [Compound 205, Nl-(3,3-difluorocyclobutyl)-N2-((S)-4-methyl-1-oxo-1-(((S)-3-oxo-1-((S)-2-oxopyrrolidin-3-yl)-4-(trifluoromethoxy)butan-2-yl)amino)pentan-2-yl)oxalamide] | < 0.05 µM |
| CC(C)C[C@H](NC(=O)C(=O)NC1CCCCC1(F)F)C(=O)N[C@@H](C[C@@H]1CCNC1=O)C(=O)COC(F)(F)F (stereo partly drawn) [Compound 169, N1-(2,2-difluorocyclohexyl)-N2-((S)-4-methyl-1-oxo-1-(((S)-3-oxo-1-((S)-2-oxopyrrolidin-3-yl)-4-(trifluoromethoxy)butan-2-yl)amino)pentan-2-yl)oxalamide] | < 0.05 µM |
| Cc1ccc(NC(=O)C(=O)N[C@@H](CC(C)C)C(=O)N[C@@H](C[C@@H]2CCNC2=O)C(=O)COc2c(F)c(F)cc(F)c2F)c(F)c1 [Compound 68, N1-(2-fluoro-4-methylphenyl)-N2-((S)-4-methyl-1-oxo-1-(((S)-3-oxo-1-((S)-2-oxopyrrolidin-3-yl)-4-(2,3,5,6-tetrafluorophenoxy)butan-2-yl)amino)pentan-2-yl)oxalamide] | < 0.05 µM |
| CC1(NC(=O)C(=O)N[C@@H](Cc2cccc(F)c2)C(=O)N[C@@H](C[C@@H]2CCNC2=O)C(=O)COC(F)(F)F)CC1 [Compound 215, N1-((S)-3-(3-fluorophenyl)-1-oxo-1-(((S)-3-oxo-1-((S)-2-oxopyrrolidin-3-yl)-4-(trifluoromethoxy)butan-2-yl)amino)propan-2-yl)-N2-(1-methylcyclopropyl)-oxalamide] | < 0.05 µM |
| COc1cccc2[nH]c(C(=O)N[C@@H](CCCc3ccccc3)C(=O)N[C@@H](C[C@@H]3CCNC3=O)C(=O)COC(F)(F)F)cc12 [Compound 233, 4-methoxy-N-((S)-1-oxo-1-(((S)-3-oxo-1-((S)-2-oxopyrrolidin-3-yl)-4-(trifluoromethoxy)butan-2-yl)amino)-5-phenylpentan-2-yl)-1H-indole-2-carboxamide] | 0.05 to 0.2 µM |
| CC(C)C[C@@H](OCC(C)(C)O)C(=O)N1CC2(CC2)C[C@H]1C(=O)N[C@@H](C[C@@H]1CCNC1=O)C(=O)COC(F)(F)F [Compound 334, (S)-5-((R)-2-(2-hydroxy-2-methylpropoxy)-4-methylpentanoyl)-N-((S)-3-oxo-1-((S)-2-oxopyrrolidin-3-yl)-4-(trifluoromethoxy)butan-2-yl)-5-azaspiro[2.4]heptane-6-carboxamide] | 0.05 to 0.2 µM |
| O=C(N[C@@H](CC1CC1)C(=O)N[C@@H](C[C@@H]1CCNC1=O)C(=O)COC(F)(F)F)c1nc2ccccc2o1 [Compound 201, N-((S)-3-cyclopropyl-1-oxo-1-(((S)-3-oxo-1-((S)-2-oxopyrrolidin-3-yl)-4-(trifluoromethoxy)butan-2-yl)amino)propan-2-yl)benzo[d]oxazole-2-carboxamide] | < 0.05 µM |
| COc1cccc2[nH]c(C(=O)N[C@@H](CC(C)C)C(=O)N[C@@H](C[C@@H]3CCNC3=O)C(=O)COC(F)(F)F)cc12 [Compound 158, 4-methoxy-N—((S)-4-methyl-1-oxo-1-(((S)-3-oxo-1-((S)-2-oxopyrrolidin-3-yl)-4-(trifluoromethoxy)butan-2-yl)amino)pentan-2-yl)-1H-indole-2-carboxamide] | < 0.05 µM |
| O=C1NCC[C@H]1C[C@H](NC(=O)[C@@H]1CC2(CC2)CN1C(=O)C(O)CC(C(F)(F)F)C(F)(F)F)C(=O)COC(F)(F)F (stereo partly drawn) [Compound 389, (6S)-N-((S)-3-oxo-1-((S)-2-oxopyrrolidin-3-yl)-4-(trifluoromethoxy)butan-2-yl)-5-(5,5,5-trifluoro-2-hydroxy-4-(trifluoromethyl)-pentanoyl)-5-azaspiro[2.4]heptane-6-carboxamide] | < 0.05 µM |
| Cc1ccccc1N(C)C(=O)C(=O)N[C@@H](CC(C)C)C(=O)N[C@@H](C[C@@H]1CCNC1=O)C(=O)COc1c(F)c(F)cc(F)c1F [Compound 107, N1-methyl-N2-((S)-4-methyl-1-oxo-1-(((S)-3-oxo-1-((S)-2-oxopyrrolidin-3-yl)-4-(2,3,5,6-tetrafluorophenoxy)butan-2-yl)amino)pentan-2-yl)-N1-(o-tolyl)oxalamide] | 0.2 to 0.5 µM |
| CC(C)C[C@H](NC(=O)C(=O)Nc1ccccc1F)C(=O)N[C@H](Cc1cnc[nH]1)C(=O)COc1c(F)c(F)cc(F)c1F [Compound 136, Nl-((S)-1-(((R)-1-(1H-imidazol-5-yl)-3-oxo-4-(2,3,5,6-tetrafluorophenoxy)butan-2-yl)amino)-4-methyl-1-oxopentan-2-yl)-N2-(2-fluorophenyl)oxalamide] | 0.5 to 1 µM |
| CC(C)C[C@H](NC(=O)/C=C/c1ccccc1)C(=O)N[C@@H](C[C@@H]1CCNC1=O)C(=O)COc1c(F)c(F)cc(F)c1F [Compound 66, (S)-2-cinnamamido-4-methyl-N-((S)-3-oxo-1-((S)-2-oxopyrrolidin-3-yl)-4-(2,3,5,6-tetrafluorophenoxy)butan-2-yl)pentanamide] | 0.05 to 0.2 µM |
| COC(OC)C(=O)N1CC2(CC2)C[C@H]1C(=O)N[C@@H](C[C@@H]1CCNC1=O)C(=O)COC(F)(F)F [Compound 340, (S)-5-(2,2-dimethoxyacetyl)-N—((S)-3-oxo-1-((S)-2-oxopyrrolidin-3-yl)-4-(trifluoromethoxy)butan-2-yl)-5-azaspiro[2.4]heptane-6-carboxamide] | 0.2 to 0.5 µM |
| CO[C@@H](CC(C)C)C(=O)N1CC2(CC2)C[C@H]1C(=O)N[C@@H](C[C@@H]1CCNC1=O)C(=O)COC(F)(F)F [Compound 339, (S)-5-((S)-2-methoxy-4-methylpentanoyl)-N-((S)-3-oxo-1-((S)-2-oxopyrrolidin-3-yl)-4-(trifluoromethoxy)butan-2-yl)-5-azaspiro[2.4]heptane-6-carboxamide] | 0.05 to 0.2 µM |

Same assay, conditions: Severe acute respiratory syndrome coronavirus 2, HeLa-ACE2, 24 h, HeLa-ACE2 cells, SARS-CoV-2 infection, 24 h; read-out: EC50, uM (Hela)

| Compound | EC50 |
| --- | --- |
| CC(C)[C@H](O)[C@@H](O)C(=O)N1CC2(CC2)C[C@H]1C(=O)N[C@@H](C[C@@H]1CCNC1=O)C(=O)COC(F)(F)F [Compound 726, (S)-5-((2R,3S)-2,3-dihydroxy-4-methylpentanoyl)-N-((S)-3-oxo-1-((S)-2-oxopyrrolidin-3-yl)-4-(trifluoromethoxy)butan-2-yl)-5-azaspiro[2.4]heptane-6-carboxamide] | 0.2 to 0.5 µM |
| CC(C)(F)c1cc(C(=O)N2C[C@@H]3CCC[C@@H]3[C@H]2C(=O)N[C@@H](C[C@@H]2CCNC2=O)C(=O)COC(F)(F)F)no1 [Compound 491, (1S,3aR,6aS)-2-(5-(2-fluoropropan-2-yl)isoxazole-3-carbonyl)-N-((S)-3-oxo-1-((S)-2-oxopyrrolidin-3-yl)-4-(trifluoromethoxy)butan-2-yl)octahydrocyclo-penta[c]pyrrole-1-carboxamide] | < 0.05 µM |
| Cc1ccccc1NC(=O)c1cn([C@@H](CC(C)C)C(=O)N[C@@H](C[C@@H]2CCNC2=O)C(=O)COC(F)(F)F)nn1 [Compound 552, 1-((S)-4-methyl-1-oxo-1-(((S)-3-oxo-1-((S)-2-oxopyrrolidin-3-yl)-4-(trifluoromethoxy)butan-2-yl)amino)pentan-2-yl)-N-(o-tolyl)-1H-l,2,3-triazole-4-carboxamide] | < 0.05 µM |
| O=C(N[C@@H](C[C@@H]1CCNC1=O)C(=O)COC(F)(F)F)C1CCCCN1C(=O)[C@@H](O)c1ccccc1 (stereo partly drawn) [Compound 769, l-((S)-2-hydroxy-2-phenylacetyl)-N-((S)-3-oxo-1-((S)-2-oxopyrrolidin-3-yl)-4-(trifluoromethoxy)butan-2-yl)piperidine-2-carboxamide] | < 0.05 µM |
| O=C1NCC[C@H]1C[C@H](NC(=O)[C@@H]1CC2(CC2)CN1C(=O)[C@H](O)c1ccccc1F)C(=O)COC(F)(F)F [Compound 410, (S)-5-((R)-2-(2-fluorophenyl)-2-hydroxyacetyl)-N-((S)-3-oxo-1-((S)-2-oxopyrrolidin-3-yl)-4-(trifluoromethoxy)butan-2-yl)-5-azaspiro[2.4]heptane-6-carboxamide] | 0.05 to 0.2 µM |
| O=C(CC(C(F)(F)F)C(F)(F)F)C(=O)N1CC2(CC2)C[C@H]1C(=O)N[C@@H](C[C@@H]1CCNC1=O)C(=O)COC(F)(F)F [Compound 743, (S)-N-((S)-3-oxo-1-((S)-2-oxopyrrolidin-3-yl)-4-(trifluoromethoxy)butan-2-yl)-5-(5,5,5-trifluoro-2-oxo-4-(trifluoromethyl)pentanoyl)-5-azaspiro[2.4]heptane-6-carboxamide] | < 0.05 µM |
| CC(C)C[C@@H](O)C(=O)N1CCCCC[C@H]1C(=O)N[C@@H](C[C@@H]1CCNC1=O)C(=O)COC(F)(F)F [Compound 639, (S)-1-((R)-2-hydroxy-4-methylpentanoyl)-N-((S)-3-oxo-1-((S)-2-oxopyrrolidin-3-yl)-4-(trifluoromethoxy)butan-2-yl)azepane-2-carboxamide] | < 0.05 µM |
| O=C1NCC[C@H]1C[C@H](NC(=O)[C@@H]1[C@H]2CCC[C@H]2CN1C(=O)OC1CCOC1)C(=O)COC(F)(F)F (stereo partly drawn) [Compound 559, tetrahydrofuran-3-yl (1S,3aR,6aS)-1-(((S)-3-oxo-1-((S)-2-oxopyrrolidin-3-yl)-4-(trifluoromethoxy)butan-2-yl)carbamoyl)-hexahydrocyclo-penta[c]-pyrrole-2(1H)-carboxylate] | 0.05 to 0.2 µM |
